Counter-ions that a name gives are not always drawn.
These compounds were tested on MC3T3-E1 cells (assay: ALP activity, differentiation of osteoblast cells). Details: Mus musculus, MC3T3-E1, 144 h; MC3T3E1 cells treated with 10 μM compound and OF; relates activity to OF-only group (100%); higher = more efficacious.
Assay type: cell-based
Outline: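 MC3T3-E1 cells were cultured 6 days at 37 °C in osteogenic medium (ascorbic acid, β-glycerophosphate) with compound at 0.1, 1 and 10 μM; medium and compound were renewed every 2-3 days. Freeze-thaw lysates were protein-normalised and ALP activity was read with 4-nitrophenylphosphate; DMSO and OF-only groups served as comparators.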

Row | SMILES | activity at 10 µM
1 | O=C1C(c2cccnc2)=C(c2ccccc2)c2ccc(OCCN3CCOCC3)cc21 [Example 1, 6-(2-morpholinoethoxy)-3-phenyl-2-(pyridin-3-yl)-1H-inden-1-one hydrochloride salt] | 455%
2 | CS(=O)(=O)N1CCC(CCOc2ccc3c(c2)C(=O)C(c2cnc4ccccc4c2)=C3c2cc(F)cc(F)c2)CC1 [Example 101, 3-(3,5-difluorophenyl)-6-{2-[1-(methylsulfonyl)piperidin-4-yl]ethoxy}-2-(quinolin-3-yl)-1H-inden-1-one hydrochloride salt] | 216%
3 | COc1ccc(C2=C(c3cc(F)cc(F)c3)c3ccc(OCCC4CCN(S(C)(=O)=O)CC4)cc3C2=O)cc1F [Example 102, 3-(3,5-difluorophenyl)-2-(3-fluoro-4-methoxyphenyl)-6-{2-[1-(methylsulfonyl)piperidin-4-yl]ethoxy}-1H-inden-1-one] | 220%
4 | Cc1ccc(C2=C(c3cc(F)cc(F)c3)c3ccc(OCCC4CCN(S(C)(=O)=O)CC4)cc3C2=O)cc1 [Example 103, 3-(3,5-difluorophenyl)-6-{2-[1-(methylsulfonyl)piperidin-4-yl]ethoxy}-2-p-tolyl-1H-inden-1-one] | 209%
5 | CS(=O)(=O)N1CCN(CCCOc2ccc3c(c2)C(=O)C(c2cnc4ccccc4c2)=C3c2cc(F)cc(F)c2)CC1 [Example 104, 3-(3,5-difluorophenyl)-6-{3-[4-(methylsulfonyl)piperazin-1-yl]propoxy}-2-(quinolin-3-yl)-1H-inden-1-one hydrochloride salt] | 124%
6 | Cc1ccc(C2=C(c3cc(F)cc(F)c3)c3ccc(OCCCN4CCN(S(C)(=O)=O)CC4)cc3C2=O)cc1 [Example 105, 3-(3,5-Difluorophenyl)-6-{3-[4-(methylsulfonyl)piperazin-1-yl]propoxy}-2-p-tolyl-1H-inden-1-one hydrochloride salt] | 99%
7 | COc1ccc(C2=C(c3cc(F)cc(F)c3)c3ccc(OCCCN4CCN(S(C)(=O)=O)CC4)cc3C2=O)cc1F [Example 106, 2-(3-fluoro-4-methoxyphenyl)-3-(3,5-difluorophenyl)-6-{3-[4-(methylsulfonyl)piperazin-1-yl]propoxy}-1H-inden-1-one hydrochloride salt] | 133%
8 | COc1ccc(C2=C(c3cc(F)cc(F)c3)c3ccc(OCCCN4CCN(S(C)(=O)=O)CC4)cc3C2=O)cn1 [Example 107, 3-(3,5-difluorophenyl)-2-(6-methoxypyridin-3-yl)-6-{3-[4-(methylsulfonyl)piperazin-1-yl]propoxy}-1H-inden-1-one hydrochloride salt] | 286%
9 | Cc1ccc(C2=C(c3ccc(F)cc3F)c3ccc(OCCCN4CCN(S(C)(=O)=O)CC4)cc3C2=O)cc1 [Example 108, 3-(2,4-difluorophenyl)-6-{3-[4-(methylsulfonyl)piperazin-1-yl]propoxy}-2-p-tolyl-1H-inden-1-one] | 111%
10 | COc1ccc(C2=C(c3ccc(F)cc3F)c3ccc(OCCCN4CCN(S(C)(=O)=O)CC4)cc3C2=O)cn1 [Example 109, 3-(2,4-difluorophenyl)-6-{3-[4-(methylsulfonyl)piperazin-1-yl]propoxy}-2-(6-methoxypyridin-3-yl)-1H-inden-1-one] | 177%
11 | COc1ccc(C2=C(c3ccc(F)cc3F)c3ccc(OCCCN4CCN(S(C)(=O)=O)CC4)cc3C2=O)cc1F [Example 110, 2-(3-fluoro-4-methoxyphenyl)-3-(2,4-difluorophenyl)-6-{3-[4-(methylsulfonyl)piperazin-1-yl]propoxy}-1H-inden-1-one] | 207%
12 | CS(=O)(=O)N1CCN(CCCOc2ccc3c(c2)C(=O)C(c2cnc4ccccc4c2)=C3c2ccc(F)cc2F)CC1 [Example 111, 3-(2,4-difluorophenyl)-6-{3-[4-(methylsulfonyl)piperazin-1-yl]propoxy}-2-(quinolin-3-yl)-1H-inden-1-one] | 117%
13 | Cc1ccc(C2=C(c3ccc(F)cc3F)c3ccc(OCCN4CCS(=O)(=O)CC4)cc3C2=O)cc1 [Example 112, 3-(2,4-difluorophenyl)-6-[2-(1,1-dioxothiomorpholin-4-yl)ethoxy]-2-p-tolyl-1H-inden-1-one] | 70%
14 | COc1ccc(C2=C(c3ccc(F)cc3F)c3ccc(OCCN4CCS(=O)(=O)CC4)cc3C2=O)cn1 [Example 113, 3-(2,4-difluorophenyl)-2-(6-methoxypyridin-3-yl)-6-[2-(1,1-dioxothiomorpholin-4-yl)ethoxy]-1H-inden-1-one] | 217%
15 | COc1ccc(C2=C(c3ccc(F)cc3F)c3ccc(OCCN4CCS(=O)(=O)CC4)cc3C2=O)cc1F [Example 114, 2-(3-fluoro-4-methoxyphenyl)-3-(2,4-difluorophenyl)-6-[2-(1,1-dioxothiomorpholin-4-yl)ethoxy]-1H-inden-1-one] | 286%
16 | O=C1C(c2cnc3ccccc3c2)=C(c2ccc(F)cc2F)c2ccc(OCCN3CCS(=O)(=O)CC3)cc21 [Example 115, 3-(2,4-difluorophenyl)-6-[2-(1,1-dioxothiomorpholin-4-yl)ethoxy]-2-(quinolin-3-yl)-1H-inden-1-one] | 199%
17 | Cc1ccc(C2=C(c3ccc(F)cc3F)c3ccc(OCCN4CCN(S(C)(=O)=O)CC4)cc3C2=O)cc1 [Example 116, 3-(2,4-difluorophenyl)-6-{2-[4-(methylsulfonyl)piperazin-1-yl]ethoxy}-2-p-tolyl-1H-inden-1-one] | 71%
18 | COc1ccc(C2=C(c3ccc(F)cc3F)c3ccc(OCCN4CCN(S(C)(=O)=O)CC4)cc3C2=O)cn1 [Example 117, 3-(2,4-difluorophenyl)-2-(6-methoxypyridin-3-yl)-6-{2-[4-(methylsulfonyl)piperazin-1-yl]ethoxy}-1H-inden-1-one] | 98%
19 | COc1ccc(C2=C(c3ccc(F)cc3F)c3ccc(OCCN4CCN(S(C)(=O)=O)CC4)cc3C2=O)cc1F [Example 118, 2-(3-fluoro-4-methoxyphenyl)-3-(2,4-difluorophenyl)-6-{2-[4-(methylsulfonyl)piperazin-1-yl]ethoxy}-1H-inden-1-one] | 311%
20 | CS(=O)(=O)N1CCN(CCOc2ccc3c(c2)C(=O)C(c2cnc4ccccc4c2)=C3c2ccc(F)cc2F)CC1 [Example 119, 3-(2,4-difluorophenyl)-6-{2-[4-(methylsulfonyl)piperazin-1-yl]ethoxy}-2-(quinolin-3-yl)-1H-inden-1-one] | 170%
21 | Cc1ccc(C2=C(c3ccc(F)cc3F)c3ccc(OCCC4CCN(S(C)(=O)=O)CC4)cc3C2=O)cc1 [Example 120, 3-(2,4-difluorophenyl)-6-{2-[1-(methylsulfonyl)piperidin-4-yl]ethoxy}-2-p-tolyl-1H-inden-1-one] | 169%
22 | COc1ccc(C2=C(c3ccc(F)cc3F)c3ccc(OCCC4CCN(S(C)(=O)=O)CC4)cc3C2=O)cn1 [Example 121, 3-(2,4-difluorophenyl)-2-(6-methoxypyridin-3-yl)-6-{2-[1-(methylsulfonyl)piperidin-4-yl]ethoxy}-1H-inden-1-one] | 207%
23 | COc1ccc(C2=C(c3ccc(F)cc3F)c3ccc(OCCC4CCN(S(C)(=O)=O)CC4)cc3C2=O)cc1F [Example 122, 2-(3-fluoro-4-methoxyphenyl)-3-(2,4-difluorophenyl)-6-{2-[1-(methylsulfonyl)piperidin-4-yl]ethoxy}-1H-inden-1-one] | 203%
24 | CS(=O)(=O)N1CCC(CCOc2ccc3c(c2)C(=O)C(c2cnc4ccccc4c2)=C3c2ccc(F)cc2F)CC1 [Example 123, 3-(2,4-difluorophenyl)-6-{2-[1-(methylsulfonyl)piperidin-4-yl]ethoxy}-2-(quinolin-3-yl)-1H-inden-1-one] | 164%
25 | COc1ccc(C2=C(c3ccc(F)cc3F)c3ccc(OCCN4CCOCC4)cc3C2=O)cn1 [Example 125, 3-(2,4-difluorophenyl)-2-(6-methoxypyridin-3-yl)-6-[2-(morpholin-4-yl)ethoxy]-1H-inden-1-one] | 63%
26 | COc1ccc(C2=C(c3ccc(F)cc3F)c3ccc(OCCN4CCOCC4)cc3C2=O)cc1F [Example 126, 2-(3-fluoro-4-methoxyphenyl)-3-(2,4-difluorophenyl)-6-[2-(morpholin-4-yl)ethoxy]-1H-inden-1-one] | 73%
27 | O=C1C(c2cnc3ccccc3c2)=C(c2ccc(F)cc2F)c2ccc(OCCN3CCOCC3)cc21 [Example 127, 3-(2,4-difluorophenyl)-6-[2-(morpholin-4-yl)ethoxy]-2-(quinolin-3-yl)-1H-inden-1-one] | 55%

What follows are compounds tested on ovariectomized female DDY mice (assay: Bone density after ovariectomy, in-vivo micro-CT). Details: oral once a day for 4 weeks.
Parameters: species or system mouse
From the text: (§1) Most pharmacological effectiveness of therapeutic agents for osteoporosis has been evaluated using an animal, rather than a human. Particularly, as a model animal for osteoporosis occurring after menopause, ovariectomized female rats have been used for its similarity to women after menopause. To examine the effects of the indenone derivatives on the bone resorption, female SD rats and female DDY mice were subjected to ovariectomy. After the rats or mice were anesthetized by abdominally injecting 25 mg/kg of sodium pentobarbital (Choongwae pharma coporation), the fur of the abdominal region was shaved and the operation area was sterilized. About 1.5 cm of abdominal skin, abdominal muscle, and peritoneum were cut in the middle under aseptic condition, and ovary was exposed, followed by removal of both left and right ovaries after ligaturing of oviducts using silk threads. Then, peritoneum, abdominal muscle and skin were sutured with silk threads. The Sham group, animals operated upon for the surgery as in the ovariectomized rats except for removing ovary, was employed to compare the effects. […]

Row | SMILES | Bone density (FIG. 3A)
28 | O=C1C(c2cccnc2)=C(c2ccccc2)c2ccc(OCCN3CCOCC3)cc21 [Example 1, 6-(2-morpholinoethoxy)-3-phenyl-2-(pyridin-3-yl)-1H-inden-1-one hydrochloride salt] | significantly increased

Each compound was assayed on ovariectomized female SD rats (assay: Bone density after ovariectomy, in-vivo micro-CT). Details: oral once a day for 4 weeks.
Parameters: species or system rat
From the text: as §1

Row | SMILES | Bone density (FIG. 3B)
29 | O=C1C(c2cccnc2)=C(c2ccccc2)c2ccc(OCCN3CCOCC3)cc21 [Example 1, 6-(2-morpholinoethoxy)-3-phenyl-2-(pyridin-3-yl)-1H-inden-1-one hydrochloride salt] | significantly increased

From patent US8877747B2, “Indenone derivative and pharmaceutical composition comprising same” (Korea Research Institute of Chemical Technology, priority 2009, dated 2014)
